Data as given in publication PMC11605156, “Triterpenoids from Ganoderma lucidum inhibit cytochrome P450 enzymes interfering with the metabolic process of specific clinical drugs” (Frontiers in Pharmacology, 2024).

Assays:
CYP2A6 = biological target: T1, CYP2A6 (Homo sapiens, UniProt P11509); test: CYP2A6 inhibition, coumarin probe in human liver microsomes; conditions: human, human liver microsomes, pH 7.4, probe coumarin 2 μM, Residual activity (%) CYP2A6, HLM 0.5 mg/mL
T1 sequence (P11509 1-494): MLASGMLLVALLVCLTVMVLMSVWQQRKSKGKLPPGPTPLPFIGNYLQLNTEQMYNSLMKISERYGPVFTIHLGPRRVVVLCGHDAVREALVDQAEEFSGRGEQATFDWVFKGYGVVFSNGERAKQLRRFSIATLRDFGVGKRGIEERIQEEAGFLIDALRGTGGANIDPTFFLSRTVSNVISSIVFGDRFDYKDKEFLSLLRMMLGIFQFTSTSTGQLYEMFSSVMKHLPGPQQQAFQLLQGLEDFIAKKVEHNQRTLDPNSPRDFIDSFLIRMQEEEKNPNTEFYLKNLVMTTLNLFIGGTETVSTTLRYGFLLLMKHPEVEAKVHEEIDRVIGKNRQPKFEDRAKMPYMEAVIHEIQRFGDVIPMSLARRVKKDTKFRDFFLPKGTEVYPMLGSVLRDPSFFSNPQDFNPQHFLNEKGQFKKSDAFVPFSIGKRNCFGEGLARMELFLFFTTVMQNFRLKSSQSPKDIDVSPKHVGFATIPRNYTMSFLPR
Procedure: (§1) The total volume of the in vitro metabolic incubation system is 200 μL. The probe substrate concentration in the system is shown in Supplementary Table S1. […] The reaction sample was preheated in a constant temperature mixer at 37°C. Then NADP^+ was added to the system to initiate the reaction. The reaction time is 30 min, and 100 μL acetonitrile will be added on time to quickly terminate the reaction, followed by centrifugation at 4°C and 20,000 g for 20 min. The supernatant was analyzed using liquid chromatography tandem mass spectrometry (LC-MS/MS), and the activity of CYP enzymes was evaluated by the generation of probe metabolites. The mass spectrometry information of probe substrates is shown in Supplementary Table S3.
(§2) The isolated triterpenoids (1–66) were used to establish a compounds library. The inhibitory effects of 66 triterpenoids from G. lucidum on seven subtypes of CYP enzymes (CYP1A2, 2A6, 2D6, 2B6, 2C9, 2C19, 3A4) were evaluated followed the above-mentioned experimental procedures.
(§3) Table S1. The information of probes for CYPs activity assay

CYP1A2 = biological target: T2, CYP1A2 (Homo sapiens, UniProt P05177); test: CYP1A2 inhibition, probe/drug metabolism in human liver microsomes (LC-MS/MS); conditions: for activity at 30 min: Residual activity (%) CYP1A2, HLM 0.5 mg/mL, phenacetin 40 μM
T2 sequence (P05177 1-516): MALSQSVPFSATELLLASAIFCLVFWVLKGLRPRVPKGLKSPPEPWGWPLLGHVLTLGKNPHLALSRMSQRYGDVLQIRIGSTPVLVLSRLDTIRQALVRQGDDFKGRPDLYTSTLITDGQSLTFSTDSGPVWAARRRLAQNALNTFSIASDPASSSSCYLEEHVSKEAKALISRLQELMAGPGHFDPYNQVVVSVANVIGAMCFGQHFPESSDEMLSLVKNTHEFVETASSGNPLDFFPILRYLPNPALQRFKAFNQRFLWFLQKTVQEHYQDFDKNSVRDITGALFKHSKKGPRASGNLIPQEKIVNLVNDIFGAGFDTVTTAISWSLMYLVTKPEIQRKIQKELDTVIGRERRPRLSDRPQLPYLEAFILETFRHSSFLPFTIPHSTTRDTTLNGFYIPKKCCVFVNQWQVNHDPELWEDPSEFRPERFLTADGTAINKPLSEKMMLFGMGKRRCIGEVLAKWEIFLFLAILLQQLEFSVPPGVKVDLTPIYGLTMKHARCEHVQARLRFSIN
Procedure: as §1, §2
(§4) For 16 clinical drugs metabolized by CYP enzymes, potential DDI studies were conducted on triterpenoids (6, 25) of G. lucidum, and IC50 values were measured.
(§5) Clinical drugs: Phenacetin, melatonin, clozapine and riluzole are metabolized by CYP1A2. Bupropion, artemisinin, efavirenz and sertraline are metabolized by CYP2B6. Diclofenac, valsartan, glimepiride and glibenclamide are metabolized by CYP2C9. Midazolam, imatinib, simvastatin and diltiazem are metabolized by CYP3A4.
as §3
(§6) Table S2. Information of clinical drugs

CYP2D6 = CYP2D6 (Homo sapiens, UniProt P10635); test: CYP2D6 inhibition, dextromethorphan probe in human liver microsomes; conditions: human, human liver microsomes, pH 7.4, probe dextromethorphan 5 μM, Residual activity (%) CYP2D6, HLM 0.5 mg/mL
Procedure: as §1, §2, §3

CYP2B6 = biological target: T3, CYP2B6 (Homo sapiens, UniProt P20813); test: CYP2B6 inhibition, probe/drug metabolism in human liver microsomes; conditions: human, human liver microsomes, pH 7.4, probe bupropion 75 μM, Residual activity (%) CYP2B6, HLM 0.5 mg/mL, bupropion 75 μM, 30 min
T3 sequence (P20813 1-491): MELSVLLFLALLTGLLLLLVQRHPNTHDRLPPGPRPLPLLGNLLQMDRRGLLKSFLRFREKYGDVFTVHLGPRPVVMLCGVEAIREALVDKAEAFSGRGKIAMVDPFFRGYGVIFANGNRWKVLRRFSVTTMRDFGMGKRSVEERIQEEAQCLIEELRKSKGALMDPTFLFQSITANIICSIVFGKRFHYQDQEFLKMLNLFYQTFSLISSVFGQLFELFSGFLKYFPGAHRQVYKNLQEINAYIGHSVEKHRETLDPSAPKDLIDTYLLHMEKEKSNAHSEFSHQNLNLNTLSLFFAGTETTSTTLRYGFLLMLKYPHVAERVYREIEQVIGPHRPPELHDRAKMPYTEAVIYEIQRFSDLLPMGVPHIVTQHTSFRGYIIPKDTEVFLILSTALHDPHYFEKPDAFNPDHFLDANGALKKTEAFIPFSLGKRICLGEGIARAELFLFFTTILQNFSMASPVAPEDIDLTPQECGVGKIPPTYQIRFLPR
Procedure: as §1, §2, §4, §5, §3, §6

CYP3A4 = CYP3A4 (Homo sapiens, UniProt P08684); test: CYP3A4 inhibition, probe/drug metabolism in human liver microsomes; conditions: human, human liver microsomes, pH 7.4, probe midazolam 5 μM, Residual activity (%) CYP3A4, HLM 0.5 mg/mL, midazolam 5 μM, 30 min
Procedure: as §1, §2, §4, §5, §3, §6

CYP2C19 = CYP2C19 (Homo sapiens, UniProt P33261); test: CYP2C19 inhibition, S-mephenytoin probe in human liver microsomes; conditions: human, human liver microsomes, pH 7.4, probe S-mephenytoin 50 μM, Residual activity (%) CYP2C19, HLM 0.5 mg/mL, S-mephenytoin 50 μM, 30 min
Procedure: as §1, §2, §3

CYP2C9 = CYP2C9 (Homo sapiens, UniProt P11712); test: CYP2C9 inhibition, probe/drug metabolism in human liver microsomes; conditions: human, human liver microsomes, pH 7.4, probe diclofenac 4 μM, Residual activity (%) CYP2C9, HLM 0.5 mg/mL, diclofenac 4 μM, 30 min
Procedure: as §1, §2, §4, §5, §3, §6

[1] = IC50 against CYP 1A2, substrate phenacetin 40 μM, HLM
[2] = human, human liver microsomes, pH 7.4, probe phenacetin 40 μM

Chain of CYP2C9 (P11712 whole entry): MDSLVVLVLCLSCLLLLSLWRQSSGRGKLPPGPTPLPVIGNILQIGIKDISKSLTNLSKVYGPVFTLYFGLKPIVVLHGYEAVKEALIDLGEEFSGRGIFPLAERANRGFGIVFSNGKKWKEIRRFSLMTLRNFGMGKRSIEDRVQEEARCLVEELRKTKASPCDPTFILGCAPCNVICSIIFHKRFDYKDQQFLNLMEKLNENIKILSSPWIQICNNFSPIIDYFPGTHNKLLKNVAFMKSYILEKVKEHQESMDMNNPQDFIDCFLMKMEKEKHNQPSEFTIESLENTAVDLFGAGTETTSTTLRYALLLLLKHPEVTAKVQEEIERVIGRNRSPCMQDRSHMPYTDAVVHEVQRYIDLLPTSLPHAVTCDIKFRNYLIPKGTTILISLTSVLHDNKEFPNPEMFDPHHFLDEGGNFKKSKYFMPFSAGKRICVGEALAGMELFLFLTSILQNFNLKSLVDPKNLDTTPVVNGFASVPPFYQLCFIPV
Chain of CYP2D6 (P10635 whole entry): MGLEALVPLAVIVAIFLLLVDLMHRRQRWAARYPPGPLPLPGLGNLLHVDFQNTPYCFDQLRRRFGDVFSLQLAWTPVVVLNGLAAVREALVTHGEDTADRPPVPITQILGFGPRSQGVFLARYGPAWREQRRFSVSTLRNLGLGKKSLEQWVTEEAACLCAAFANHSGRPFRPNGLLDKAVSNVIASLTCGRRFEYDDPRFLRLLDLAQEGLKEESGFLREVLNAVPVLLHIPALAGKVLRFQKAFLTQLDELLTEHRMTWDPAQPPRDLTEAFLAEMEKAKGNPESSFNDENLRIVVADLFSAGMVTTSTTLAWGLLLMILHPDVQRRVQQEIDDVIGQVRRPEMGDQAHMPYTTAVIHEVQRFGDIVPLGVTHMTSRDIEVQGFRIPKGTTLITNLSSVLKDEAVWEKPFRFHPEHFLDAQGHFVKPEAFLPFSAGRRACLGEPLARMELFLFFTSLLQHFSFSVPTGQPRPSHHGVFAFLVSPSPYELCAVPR
Chain of CYP3A4 (P08684 whole entry): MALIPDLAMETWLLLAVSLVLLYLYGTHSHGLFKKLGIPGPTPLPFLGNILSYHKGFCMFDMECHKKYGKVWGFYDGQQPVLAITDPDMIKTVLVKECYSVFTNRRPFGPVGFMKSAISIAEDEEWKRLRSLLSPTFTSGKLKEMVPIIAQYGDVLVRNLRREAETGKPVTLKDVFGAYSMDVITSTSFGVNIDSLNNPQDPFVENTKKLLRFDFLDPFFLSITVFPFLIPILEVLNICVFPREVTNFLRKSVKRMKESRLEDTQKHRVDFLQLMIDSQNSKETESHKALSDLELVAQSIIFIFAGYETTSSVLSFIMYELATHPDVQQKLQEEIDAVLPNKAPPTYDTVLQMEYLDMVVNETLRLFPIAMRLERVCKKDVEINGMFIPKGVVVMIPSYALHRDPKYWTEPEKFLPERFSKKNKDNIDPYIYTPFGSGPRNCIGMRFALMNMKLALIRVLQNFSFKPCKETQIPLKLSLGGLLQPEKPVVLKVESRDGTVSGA
Chain of CYP2C19 (P33261 whole entry): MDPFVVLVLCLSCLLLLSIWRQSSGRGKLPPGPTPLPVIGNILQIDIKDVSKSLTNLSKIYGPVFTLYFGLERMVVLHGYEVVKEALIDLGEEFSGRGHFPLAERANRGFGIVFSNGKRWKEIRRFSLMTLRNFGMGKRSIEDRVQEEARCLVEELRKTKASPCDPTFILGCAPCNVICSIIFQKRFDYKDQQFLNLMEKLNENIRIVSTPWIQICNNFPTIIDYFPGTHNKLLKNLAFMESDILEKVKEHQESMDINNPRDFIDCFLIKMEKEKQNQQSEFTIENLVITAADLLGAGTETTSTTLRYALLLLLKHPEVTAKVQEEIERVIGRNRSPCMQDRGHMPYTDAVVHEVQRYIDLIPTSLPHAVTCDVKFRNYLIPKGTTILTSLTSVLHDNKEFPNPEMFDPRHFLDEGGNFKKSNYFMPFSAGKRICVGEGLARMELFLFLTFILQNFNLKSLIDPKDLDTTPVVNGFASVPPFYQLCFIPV

Compound	activity at 30 min (CYP2A6) [%]	IC50 (CYP1A2; [1]) [µM]	activity at 30 min (CYP1A2; [2]) [%]	activity at 30 min (CYP2D6) [%]	activity at 30 min (CYP2B6) [%]	activity at 30 min (CYP3A4) [%]	activity at 30 min (CYP2C19) [%]	activity at 30 min (CYP2C9) [%]	IC50 at 30 min (CYP1A2; human, human liver microsomes, pH 7.4, probe phenacetin 40 μM, IC50 against CYP 1A2, substrate phenacetin 40 μM, HLM) [µM]
CC(CC(=O)CC(C)C1CC(=O)C2(C)C3=C(C(=O)CC12C)C1(C)CCC(O)C(C)(CO)C1CC3O)C(=O)O (centres unmarked) [Compound 2]	78.38 ± 0.16	16 ± 4.05	35.4 ± 3.33	79.7 ± 8.99	79.86 ± 0.32	79.6 ± 5.54	62.77 ± 0.26	87.1 ± 3.47	–
CC(CC(=O)CC(C)C1CC(=O)C2(C)C3=C(C(=O)C(O)C12C)C1(C)CCC(=O)C(C)(CO)C1CC3O)C(=O)O (centres unmarked) [Compound 3]	79.9 ± 0.97	14 ± 1.73	33 ± 4.08	76.5 ± 4.49	75.3 ± 4.16	60.3 ± 3.06	63.6 ± 7.83	87.3 ± 6.36	–
CC(=O)OC1C(=O)C2=C(C(=O)CC3C(C)(C)C(=O)CCC23C)C2(C)C(=O)CC(C(C)CC(O)C=C(C)C(=O)O)C12C (centres unmarked) [Compound 31]	86.17 ± 0.44	–	53.7 ± 1.44	103 ± 3.3	71.2 ± 4.24	104 ± 1.72	94.8 ± 4.46	80.99 ± 0.51	29 ± 6.91

The next lines start with the values.

activity at 30 min (CYP2A6) [%]	IC50 (CYP1A2; [1]) [µM]	activity at 30 min (CYP1A2; [2]) [%]	activity at 30 min (CYP2D6) [%]	activity at 30 min (CYP2B6) [%]	activity at 30 min (CYP3A4) [%]	activity at 30 min (CYP2C19) [%]	activity at 30 min (CYP2C9) [%]	IC50 at 30 min (CYP1A2; human, human liver microsomes, pH 7.4, probe phenacetin 40 μM, IC50 against CYP 1A2, substrate phenacetin 40 μM, HLM) [µM]	Compound
104 ± 1.4	–	88 ± 3.49	104 ± 3.22	94.3 ± 3.45	60.1 ± 3.57	97.6 ± 4.86	94.8 ± 3.33	–	CC1(C)CCC2(C(=O)O)CCC3(C)C(=CC(=O)C4C5(C)CCC(O)C(C)(C)C5CCC43C)C2C1 (centres unmarked) [Compound 37]
87 ± 1.46	–	81.9 ± 5.81	72.7 ± 10.4	88.6 ± 6.9	55.4 ± 1.19	84.38 ± 0.53	82.9 ± 2.75	–	CC1(C)CCC2(C(=O)O)CCC3(C)C(=C2C1)C=CC1C2(C)CCC(O)C(C)(C)C2CCC13C (centres unmarked) [Compound 36]
